Converted amounts (≈) assume the structure as drawn. The source made the active and inactive calls. No cut-off for these calls is given here.
Experiments:
Acinetobacter baumannii [1] = experiment: Anti- biofilm activity against Acinetobacter baumannii assessed as biofilm viability at 4 times MIC relative to control; assay type: functional
Acinetobacter baumannii [2] = experiment: Anti- biofilm activity against Acinetobacter baumannii assessed as biofilm viability at 2 times MIC relative to control; assay type: functional
Escherichia coli [3] = experiment: Antibacterial activity against Escherichia coli 25922 assessed as inhibition of bacterial growth by two fold serial dilution method; assay type: functional
Cell membrane [4] = experiment: Induction of cytoplasmic membrane depolarization in Klebsiella pneumoniae assessed as increase in fluorescence intensity at 0.5 to 4 times MIC by DiSC35 dye based fluorescence method; details: DDE = dose-dependent effect
Cell membrane [5] = experiment: Induction of inner membrane damage in Acinetobacter baumannii assessed as disruption of membrane integrity at 0.25 to 2 ug/ml by propidium iodide staining based fluorescence analysis; assay type: subcellular; details: dose 0.25-2 µg/ml
Staphylococcus aureus [6] = experiment: Antibacterial activity against methicillin-resistant Staphylococcus aureus N315 assessed as inhibition of bacterial growth by two fold serial dilution method; assay type: functional
[7] = Cytotoxicity against human HepG2 cells assessed as viable cells upto 40 ug/ml relative to control; assay type: toxicity, cell-based; details: up to 40 µg/mL, read-out: Activity
Cell membrane [8] = experiment: Induction of outer membrane permeabilization in Acinetobacter baumannii assessed as increase in fluorescence intensity at 4 times MIC by NPN-dye based fluorescence analysis; assay type: subcellular
Klebsiella pneumoniae [9] = experiment: Induction of morphological changes in Klebsiella pneumoniae assessed as shrunken cell membrane at 2 times MIC for 4 hrs by SEM analysis; assay type: functional, organism-based
Acinetobacter baumannii [10] = experiment: Anti- biofilm activity against Acinetobacter baumannii assessed as biofilm viability at 1 time MIC relative to control; assay type: functional
Acinetobacter baumannii [11] = experiment: Anti- biofilm activity against Acinetobacter baumannii assessed as inhibition of biofilm formation at 4 times MIC relative to control; assay type: functional; set-up: scale not given: the % may be the effect or the level left
Klebsiella pneumoniae [12] = experiment: Induction of morphological changes in Klebsiella pneumoniae assessed as cytoplasmic sparsity at 2 times MIC for 4 hrs by TEM analysis; assay type: functional, organism-based
Staphylococcus aureus [13] = experiment: Antibacterial activity against Staphylococcus aureus assessed as inhibition of bacterial growth by two fold serial dilution method; assay type: functional
Cell membrane [14] = experiment: Induction of cytoplasmic membrane depolarization in Acinetobacter baumannii assessed as increase in fluorescence intensity at 0.5 to 4 times MIC by DiSC35 dye based fluorescence method; details: DDE = dose-dependent effect
Klebsiella pneumoniae [15] = experiment: Anti- biofilm activity against Klebsiella pneumoniae assessed as biofilm viability at 2 times MIC relative to control; assay type: functional
Acinetobacter baumannii [16] = experiment: Anti- biofilm activity against Acinetobacter baumannii assessed as inhibition of biofilm formation at 6 times MIC relative to control; assay type: functional; set-up: scale not given: the % may be the effect or the level left
Klebsiella pneumoniae [17] = experiment: Induction of morphological changes in Klebsiella pneumoniae assessed as appearance of broken cell membrane at 2 times MIC for 4 hrs by SEM analysis; assay type: functional, organism-based
Klebsiella pneumoniae [18] = experiment: Anti- biofilm activity against Klebsiella pneumoniae assessed as inhibition of biofilm formation at 1 time MIC relative to control; assay type: functional; set-up: scale not given: the % may be the effect or the level left
Acinetobacter baumannii [19] = experiment: Anti- biofilm activity against Acinetobacter baumannii assessed as biofilm viability at 6 times MIC relative to control; assay type: functional
Staphylococcus aureus [20] = experiment: Antibacterial activity against Staphylococcus aureus 29213 assessed as inhibition of bacterial growth by two fold serial dilution method; assay type: functional
Cell membrane [21] = experiment: Induction of cytoplasmic membrane depolarization in Klebsiella pneumoniae assessed as increase in fluorescence intensity at 0.5 to 4 times MIC and measured up to 100 mins by DiSC35 dye based fluorescence method; assay type: subcellular; details: TDE = time-dependent effect
Staphylococcus aureus [22] = experiment: Antibacterial activity against Staphylococcus aureus 25923 assessed as inhibition of bacterial growth by two fold serial dilution method; assay type: functional
Acinetobacter baumannii [23] = experiment: Induction of ROS generation in Acinetobacter baumannii assessed as ROS accumulation at 1 to 8 times MIC by DCFH-DA dye based fluorescence assay; assay type: functional, organism-based; details: DDE = dose-dependent effect
Cell membrane [24] = experiment: Induction of outer membrane permeabilization in Klebsiella pneumoniae assessed as increase in NPN fluorescence at 4 times MIC by NPN-dye based fluorescence analysis; assay type: subcellular
Acinetobacter baumannii [25] = experiment: Anti- biofilm activity against Acinetobacter baumannii assessed as inhibition of biofilm formation at 1 time MIC relative to control; assay type: functional; set-up: scale not given: the % may be the effect or the level left
Klebsiella pneumoniae [26] = experiment: Anti- biofilm activity against Klebsiella pneumoniae assessed as inhibition of biofilm formation at 2 times MIC relative to control; assay type: functional; set-up: scale not given: the % may be the effect or the level left
Klebsiella pneumoniae [27] = experiment: Anti- biofilm activity against Klebsiella pneumoniae assessed as biofilm viability at 4 times MIC relative to control; assay type: functional
Klebsiella pneumoniae [28] = experiment: Anti- biofilm activity against Klebsiella pneumoniae assessed as inhibition of biofilm formation at 6 times MIC relative to control; assay type: functional; set-up: scale not given: the % may be the effect or the level left
Klebsiella pneumoniae [29] = experiment: Anti- biofilm activity against Klebsiella pneumoniae assessed as biofilm viability at 1 time MIC relative to control; assay type: functional
Erythrocyte = experiment: Hemolytic activity in human RBC assessed as hemolysis at 512 ug/ml; assay type: toxicity, cell-based; details: dose 512 µg/ml
Klebsiella pneumoniae [30] = experiment: Anti- biofilm activity against Klebsiella pneumoniae assessed as biofilm viability at 6 times MIC relative to control; assay type: functional
Escherichia coli [31] = experiment: Antibacterial activity against Escherichia coli assessed as inhibition of bacterial growth by two fold serial dilution method; assay type: functional
Pseudomonas aeruginosa [32] = experiment: Antibacterial activity against Pseudomonas aeruginosa 27853 assessed as inhibition of bacterial growth by two fold serial dilution method; assay type: functional
Calf thymus DNA [33] = experiment: Binding affinity to calf thymus DNA assessed as reduction in fluorescence intensity of DNA-acridine orange complex by acridine orange dye based fluorescence analysis; assay type: nucleic-acid assay; details: Bos taurus
Klebsiella pneumoniae [34] = experiment: Antioxidant activity in Klebsiella pneumoniae assessed as loss of GSH activity at 1 to 8 times MIC; assay type: functional, organism-based
Klebsiella pneumoniae [35] = experiment: Bactericidal activity against Klebsiella pneumoniae assessed as reduction in bacterial growth at 4 times MIC and measured within 2 hrs by time-kill kinetic assay relative to control; assay type: functional; set-up: scale not given: the % may be the effect or the level left
Cell membrane [36] = experiment: Induction of cytoplasmic membrane depolarization in Acinetobacter baumannii assessed as increase in fluorescence intensity at 0.5 to 4 times MIC and measured up to 100 mins by DiSC35 dye based fluorescence method; assay type: subcellular; details: TDE = time-dependent effect
Klebsiella pneumoniae [37] = experiment: Induction of morphological changes in Klebsiella pneumoniae assessed as cell lysis at 2 times MIC for 4 hrs by TEM analysis; assay type: functional, organism-based
Acinetobacter baumannii [38] = experiment: Anti- biofilm activity against Acinetobacter baumannii assessed as inhibition of biofilm formation at 2 times MIC relative to control; assay type: functional; set-up: scale not given: the % may be the effect or the level left
Klebsiella pneumoniae [39] = experiment: Induction of ROS generation in Klebsiella pneumoniae assessed as ROS accumulation at 1 to 8 times MIC by DCFH-DA dye based fluorescence assay; assay type: functional, organism-based; details: DDE = dose-dependent effect
Acinetobacter baumannii [40] = experiment: Antioxidant activity in Acinetobacter baumannii assessed as loss of GSH activity at 1 to 8 times MIC; assay type: functional, organism-based
Cell membrane [41] = experiment: Induction of inner membrane damage in Klebsiella pneumoniae assessed as disruption of membrane integrity at 0.25 to 2 ug/ml by propidium iodide staining based fluorescence analysis; assay type: subcellular; details: dose 0.25-2 µg/ml
[42] = Cytotoxicity against human endothelial cells assessed as viable cells upto 40 ug/ml relative to control; assay type: toxicity, cell-based, Endothelial cell; details: up to 40 µg/mL, read-out: Activity
Acinetobacter baumannii [43] = experiment: Antibacterial activity against Acinetobacter baumannii assessed as inhibition of bacterial growth by two fold serial dilution method; assay type: functional
Acinetobacter baumannii [44] = experiment: Bactericidal activity against Acinetobacter baumannii assessed as reduction in bacterial growth at MIC and measured within 2 hrs by time-kill kinetic assay; assay type: functional
Enterococcus faecalis = experiment: Antibacterial activity against Enterococcus faecalis assessed as inhibition of bacterial growth by two fold serial dilution method; assay type: functional
Klebsiella pneumoniae [45] = experiment: Antibacterial activity against Klebsiella pneumoniae assessed as inhibition of bacterial growth by two fold serial dilution method; assay type: functional
Acinetobacter baumannii [46] = experiment: Bactericidal activity against Acinetobacter baumannii assessed as reduction in bacterial growth at 4 times MIC and measured within 2 hrs by time-kill kinetic assay relative to control; assay type: functional; set-up: scale not given: the % may be the effect or the level left
Klebsiella pneumoniae [47] = experiment: Bactericidal activity against Klebsiella pneumoniae assessed as reduction in bacterial growth at MIC and measured within 2 hrs by time-kill kinetic assay; assay type: functional
Klebsiella pneumoniae [48] = experiment: Anti- biofilm activity against Klebsiella pneumoniae assessed as inhibition of biofilm formation at 4 times MIC relative to control; assay type: functional; set-up: scale not given: the % may be the effect or the level left
Pseudomonas aeruginosa [49] = experiment: Antibacterial activity against Pseudomonas aeruginosa assessed as inhibition of bacterial growth by two fold serial dilution method; assay type: functional
Calf thymus DNA [50] = experiment: Binding affinity to calf thymus DNA assessed as assessed as compound-DNA complex formation by measuring red shift by UV-visible absorption spectrophotometric method; assay type: nucleic-acid assay; details: Bos taurus
Klebsiella pneumoniae [51] = experiment: Induction of morphological changes in Klebsiella pneumoniae assessed as membrane rupture at 2 times MIC for 4 hrs by TEM analysis; assay type: functional, organism-based
Acinetobacter baumannii [52] = experiment: Bactericidal activity against Acinetobacter baumannii assessed as fold increase in MIC value after 16 passages by two fold serial dilution method; assay type: functional
Klebsiella pneumoniae [53] = experiment: Bactericidal activity against Klebsiella pneumoniae assessed as fold increase in MIC value after 16 passages by two fold serial dilution method; assay type: functional

CCCCc1nc(Cl)c(C2NC(=O)NC(CN(c3cc(C)no3)S(=O)(=O)c3ccc(N)cc3)=C2C(=O)OCC)[nH]1 (stereo unspecified)
Activity (Acinetobacter baumannii [1]): 70%
Activity (Acinetobacter baumannii [2]): 83%
MIC (Escherichia coli [3]): 1 µg/mL (≈ 1.69 µM)
Activity (Cell membrane [4]): Dde
Activity (Cell membrane [5]): Active
MIC (Staphylococcus aureus [6]): 4 µg/mL (≈ 6.76 µM)
viability [7]: > 50%
Activity (Cell membrane [8]): Active
Activity (Klebsiella pneumoniae [9]): Active
Activity (Acinetobacter baumannii [10]): 87%
Activity (Acinetobacter baumannii [11]): 58%
Activity (Klebsiella pneumoniae [12]): Active
MIC (Staphylococcus aureus [13]): 2 µg/mL (≈ 3.38 µM)
Activity (Cell membrane [14]): Dde
Activity (Klebsiella pneumoniae [15]): 76%
Activity (Acinetobacter baumannii [16]): 84%
Activity (Klebsiella pneumoniae [17]): Active
Activity (Klebsiella pneumoniae [18]): 30%
Activity (Acinetobacter baumannii [19]): 41%
MIC (Staphylococcus aureus [20]): 2 µg/mL (≈ 3.38 µM)
Activity (Cell membrane [21]): Tde
MIC (Staphylococcus aureus [22]): 8 µg/mL (≈ 13.5 µM)
Activity (Acinetobacter baumannii [23]): Dde
Activity (Cell membrane [24]): Active
Activity (Acinetobacter baumannii [25]): 21%
Activity (Klebsiella pneumoniae [26]): 66%
Activity (Klebsiella pneumoniae [27]): 62%
Activity (Klebsiella pneumoniae [28]): 89%
Activity (Klebsiella pneumoniae [29]): 85%
Activity (Erythrocyte): Non-Toxic
Activity (Klebsiella pneumoniae [30]): 36%
MIC (Escherichia coli [31]): 2 µg/mL (≈ 3.38 µM)
MIC (Pseudomonas aeruginosa [32]): 4 µg/mL (≈ 6.76 µM)
Activity (Calf thymus DNA [33]): Active
Activity (Klebsiella pneumoniae [34]): Active
Activity (Klebsiella pneumoniae [35]): 66.7%
Activity (Cell membrane [36]): Tde
Activity (Klebsiella pneumoniae [37]): Active
Activity (Acinetobacter baumannii [38]): 30%
Activity (Klebsiella pneumoniae [39]): Dde
Activity (Acinetobacter baumannii [40]): Active
Activity (Cell membrane [41]): Active
viability [42]: > 50%
MIC (Acinetobacter baumannii [43]): 0.5 µg/mL (≈ 0.844 µM)
Activity (Acinetobacter baumannii [44]): 2.4 log10CFU/ml
MIC (Enterococcus faecalis): 16 µg/mL (≈ 27 µM)
MIC (Klebsiella pneumoniae [45]): 0.5 µg/mL (≈ 0.844 µM)
Activity (Acinetobacter baumannii [46]): 66.7%
Activity (Klebsiella pneumoniae [47]): 2.5 log10CFU/ml
Activity (Klebsiella pneumoniae [48]): 82%
MIC (Pseudomonas aeruginosa [49]): 4 µg/mL (≈ 6.76 µM)
Activity (Calf thymus DNA [50]): Active
Activity (Klebsiella pneumoniae [51]): Active

CCn1cc(C(=O)O)c(=O)c2cc(F)c(N3CCNCC3)cc21 [NORFLOXACIN]
MIC (Escherichia coli [3]): 8 µg/mL (≈ 25.1 µM)
MIC (Staphylococcus aureus [6]): 16 µg/mL (≈ 50.1 µM)
fold change (FC) (Acinetobacter baumannii [52]): 32
MIC (Staphylococcus aureus [13]): 2 µg/mL (≈ 6.26 µM)
MIC (Staphylococcus aureus [20]): 2 µg/mL (≈ 6.26 µM)
MIC (Staphylococcus aureus [22]): 1 µg/mL (≈ 3.13 µM)
MIC (Escherichia coli [31]): 16 µg/mL (≈ 50.1 µM)
MIC (Pseudomonas aeruginosa [32]): 0.5 µg/mL (≈ 1.57 µM)
MIC (Acinetobacter baumannii [43]): 8 µg/mL (≈ 25.1 µM)
MIC (Enterococcus faecalis): 4 µg/mL (≈ 12.5 µM)
MIC (Klebsiella pneumoniae [45]): 4 µg/mL (≈ 12.5 µM)
fold change (FC) (Klebsiella pneumoniae [53]): 32
MIC (Pseudomonas aeruginosa [49]): 2 µg/mL (≈ 6.26 µM)
